Values joined by “and” are separate entries in the source; they are usually repeats but may differ in a detail not shown here. Equal values may be shown once.
Assay: xn = mol fraction of the nth substance listed
Details: 313.15 K, 101 kPa, Liquid, Direct dilatometry

CC(=O)N(C)C [N,N-dimethylethanamide] + O
Details | excess molar volume
x1 = 0.0092 | -3.79e-08 m3/mol
x1 = 0.0196 | -8.59e-08 m3/mol
x1 = 0.03 | -1.402e-07 m3/mol
x1 = 0.0556 | -2.881e-07 m3/mol
x1 = 0.0704 | -3.778e-07 m3/mol
x1 = 0.0823 | -4.496e-07 m3/mol
x1 = 0.0853 | -4.67e-07 m3/mol
x1 = 0.091 | -4.98e-07 m3/mol
x1 = 0.0968 | -5.344e-07 m3/mol
x1 = 0.0981 | -5.428e-07 m3/mol
x1 = 0.1063 | -5.918e-07 m3/mol
x1 = 0.1088 | -6.146e-07 m3/mol
x1 = 0.1167 | -6.527e-07 m3/mol
x1 = 0.1258 | -7.063e-07 m3/mol
x1 = 0.1364 | -7.653e-07 m3/mol
x1 = 0.1478 | -8.283e-07 m3/mol
x1 = 0.1603 | -8.946e-07 m3/mol
x1 = 0.1651 | -9.21e-07 m3/mol
x1 = 0.1728 | -9.553e-07 m3/mol and -9.577e-07 m3/mol
x1 = 0.1851 | -1.017e-06 m3/mol
x1 = 0.1902 | -1.039e-06 m3/mol
x1 = 0.2039 | -1.098e-06 m3/mol
x1 = 0.2221 | -1.172e-06 m3/mol
x1 = 0.2379 | -1.229e-06 m3/mol
x1 = 0.2514 | -1.273e-06 m3/mol
x1 = 0.2642 | -1.315e-06 m3/mol
x1 = 0.2665 | -1.318e-06 m3/mol
x1 = 0.2718 | -1.334e-06 m3/mol
x1 = 0.2773 | -1.349e-06 m3/mol
x1 = 0.2787 | -1.35e-06 m3/mol
x1 = 0.2883 | -1.374e-06 m3/mol
x1 = 0.2987 | -1.397e-06 m3/mol
x1 = 0.31 | -1.418e-06 m3/mol
x1 = 0.3216 | -1.44e-06 m3/mol
x1 = 0.3377 | -1.463e-06 m3/mol
x1 = 0.352 | -1.479e-06 m3/mol
x1 = 0.3679 | -1.493e-06 m3/mol
x1 = 0.3759 | -1.501e-06 m3/mol
x1 = 0.3782 | -1.499e-06 m3/mol
x1 = 0.3812 | -1.502e-06 m3/mol
x1 = 0.3884 | -1.506e-06 m3/mol
x1 = 0.3918 | -1.505e-06 m3/mol
x1 = 0.3948 | -1.508e-06 m3/mol
x1 = 0.4047 | -1.511e-06 m3/mol
x1 = 0.4141 | -1.511e-06 m3/mol
x1 = 0.4248 | -1.511e-06 m3/mol
x1 = 0.4402 | -1.507e-06 m3/mol
x1 = 0.4583 | -1.497e-06 m3/mol
x1 = 0.47 | -1.489e-06 m3/mol
x1 = 0.4759 | -1.487e-06 m3/mol
x1 = 0.4881 | -1.473e-06 m3/mol
x1 = 0.4976 | -1.464e-06 m3/mol
x1 = 0.5257 | -1.43e-06 m3/mol
x1 = 0.5546 | -1.38e-06 m3/mol
x1 = 0.5961 | -1.295e-06 m3/mol
x1 = 0.6483 | -1.173e-06 m3/mol
x1 = 0.6819 | -1.082e-06 m3/mol
x1 = 0.7273 | -9.449e-07 m3/mol
x1 = 0.732 | -9.375e-07 m3/mol
x1 = 0.755 | -8.613e-07 m3/mol
x1 = 0.7743 | -8.015e-07 m3/mol
x1 = 0.7939 | -7.378e-07 m3/mol
x1 = 0.8089 | -6.896e-07 m3/mol
x1 = 0.8158 | -6.653e-07 m3/mol
x1 = 0.8331 | -6.07e-07 m3/mol
x1 = 0.8622 | -5.075e-07 m3/mol
x1 = 0.8823 | -4.342e-07 m3/mol
x1 = 0.884 | -4.256e-07 m3/mol
x1 = 0.9064 | -3.494e-07 m3/mol
x1 = 0.9258 | -2.754e-07 m3/mol
x1 = 0.9539 | -1.863e-07 m3/mol
x1 = 0.9568 | -1.596e-07 m3/mol
x1 = 0.9716 | -1.062e-07 m3/mol
